Values quoted from earlier work as cited in article PMC4237557 (Diabetes, Obesity & Metabolism, 2014).

How the values were obtained:
[1] = system: insulin-like growth factor 1 receptor (IGF-1R); conditions: in vitro
[2] = in vitro

Row | Affinity for IGF-1R compared with human insulin [1] | Substance | Mitogenicity compared with endogenous human insulin [2] | Glucose-lowering potency compared with parent glargine (M0)
1 | lower affinity | 21^A-Gly-des-30^B-Thr-human insulin [M2] | – | –
2 | lower affinity | 21^A-Gly-human insulin [M1] | does not exhibit an increased affinity for IGF-1R or increased mitogenicity | equal glucose-lowering potency
